# Read-outs that look alike come from different tables or passages of the source.
# Legend:
# dopaminergic D2 receptor = dopaminergic D2 receptor (Homo sapiens, UniProt P14416); experiment: Binding assay D2S (h), [3H]methyl-spiperone, HEK-293 cells; parameters: expressed in transfected cells; host or cells: HEK-293 cells; conditions: read-out: D2 [%]
# Summary of the method: (§1)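 Compounds tested at a single 1×10^−6 M concentration against the listed radioligands; bound label counted by scintillation, with non-specific binding defined by excess unlabelled ligand and subtracted from total.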
# [1] = molecular target: T1, serotoninergic 5-HT7 receptor (Homo sapiens, UniProt P34969); experiment: Cellular functional assay, serotoninergic 5-HT7 receptor (agonism/antagonism); type: cell-based; conditions: for activation at 1 µM: agonist effect, percent of control specific agonist response, compounds tested at 1×10^−6M, read-out: 5-HT7-ag [%]; for inhibition at 1 µM: read-out: 5-HT7-antag. [%]
# T1 sequence (P34969 whole entry): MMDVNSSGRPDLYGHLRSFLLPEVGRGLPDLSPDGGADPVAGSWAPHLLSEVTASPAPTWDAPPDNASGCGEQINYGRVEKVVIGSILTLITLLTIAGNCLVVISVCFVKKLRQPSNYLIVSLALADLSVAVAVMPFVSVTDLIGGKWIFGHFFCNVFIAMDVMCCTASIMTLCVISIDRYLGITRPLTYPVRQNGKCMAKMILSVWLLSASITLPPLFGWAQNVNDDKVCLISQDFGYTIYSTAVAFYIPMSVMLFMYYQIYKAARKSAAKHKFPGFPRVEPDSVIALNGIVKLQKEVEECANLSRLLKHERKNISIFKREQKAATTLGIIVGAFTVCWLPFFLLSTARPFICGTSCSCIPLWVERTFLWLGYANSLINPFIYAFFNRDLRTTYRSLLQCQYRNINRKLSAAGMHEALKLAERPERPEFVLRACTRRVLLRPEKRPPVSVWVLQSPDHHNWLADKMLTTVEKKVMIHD
# Procedure: (§2) The compounds were tested at the concentration of 1×10^−6M.
# (§3) In the Tables ag refers to agonism, and antag to antagonism).
# [2] = molecular target: T2, serotonine transporter (SERT) receptor (Homo sapiens, UniProt P31645); experiment: Binding assay SERT (h), [3H]imipramine, CHO cells; conditions: read-out: SERT [%]
# T2 construct: expressed in transfected cells; host or cells: CHO cells
# T2 sequence (P31645 whole entry): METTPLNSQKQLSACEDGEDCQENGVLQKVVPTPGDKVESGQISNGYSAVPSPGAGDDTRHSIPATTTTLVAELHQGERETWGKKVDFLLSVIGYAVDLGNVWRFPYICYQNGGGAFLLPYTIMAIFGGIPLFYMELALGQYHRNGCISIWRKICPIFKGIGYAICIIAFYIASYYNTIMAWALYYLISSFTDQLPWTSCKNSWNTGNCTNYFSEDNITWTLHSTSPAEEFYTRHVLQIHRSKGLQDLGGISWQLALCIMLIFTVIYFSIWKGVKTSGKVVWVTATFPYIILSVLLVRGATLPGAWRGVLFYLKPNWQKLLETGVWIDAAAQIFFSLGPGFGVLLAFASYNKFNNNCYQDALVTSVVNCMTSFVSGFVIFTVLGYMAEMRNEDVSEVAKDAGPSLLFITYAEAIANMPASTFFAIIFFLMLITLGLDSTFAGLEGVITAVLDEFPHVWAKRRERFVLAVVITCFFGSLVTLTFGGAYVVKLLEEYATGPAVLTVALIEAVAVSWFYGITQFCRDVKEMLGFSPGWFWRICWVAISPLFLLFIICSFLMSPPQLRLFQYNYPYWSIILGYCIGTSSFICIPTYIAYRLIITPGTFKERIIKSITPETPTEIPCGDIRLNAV
# Summary of the method: as §1
# [3] = molecular target: T3, serotoninergic receptor 5-HT2C (Homo sapiens, UniProt P28335); experiment: Binding assay 5-HT2C (h), [3H]mesulergine, HEK-293 cells; conditions: read-out: 5-HT2C [%]
# T3 construct: expressed in transfected cells; host or cells: HEK-293 cells
# T3 sequence (P28335 33-458): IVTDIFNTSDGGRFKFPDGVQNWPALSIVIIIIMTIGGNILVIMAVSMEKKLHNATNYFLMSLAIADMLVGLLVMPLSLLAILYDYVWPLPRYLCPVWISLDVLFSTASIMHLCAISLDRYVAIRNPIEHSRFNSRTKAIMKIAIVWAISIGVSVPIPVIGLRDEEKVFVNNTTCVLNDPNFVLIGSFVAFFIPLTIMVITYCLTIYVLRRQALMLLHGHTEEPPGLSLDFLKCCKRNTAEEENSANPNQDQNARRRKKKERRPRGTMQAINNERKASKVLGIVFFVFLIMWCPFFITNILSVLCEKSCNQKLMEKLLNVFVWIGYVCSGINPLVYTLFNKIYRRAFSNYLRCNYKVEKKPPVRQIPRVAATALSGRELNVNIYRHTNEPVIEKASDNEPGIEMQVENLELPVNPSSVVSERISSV
# Summary of the method: as §1
# [4] = molecular target: histaminergic H1 receptor (Homo sapiens, UniProt P35367); experiment: Binding assay H1 (h), [3H]pyrilamine, HEK-293 cells; parameters: expressed in transfected cells; host or cells: HEK-293 cells; conditions: read-out: H1 [%]
# histaminergic H1 receptor, sequence (P35367 whole entry): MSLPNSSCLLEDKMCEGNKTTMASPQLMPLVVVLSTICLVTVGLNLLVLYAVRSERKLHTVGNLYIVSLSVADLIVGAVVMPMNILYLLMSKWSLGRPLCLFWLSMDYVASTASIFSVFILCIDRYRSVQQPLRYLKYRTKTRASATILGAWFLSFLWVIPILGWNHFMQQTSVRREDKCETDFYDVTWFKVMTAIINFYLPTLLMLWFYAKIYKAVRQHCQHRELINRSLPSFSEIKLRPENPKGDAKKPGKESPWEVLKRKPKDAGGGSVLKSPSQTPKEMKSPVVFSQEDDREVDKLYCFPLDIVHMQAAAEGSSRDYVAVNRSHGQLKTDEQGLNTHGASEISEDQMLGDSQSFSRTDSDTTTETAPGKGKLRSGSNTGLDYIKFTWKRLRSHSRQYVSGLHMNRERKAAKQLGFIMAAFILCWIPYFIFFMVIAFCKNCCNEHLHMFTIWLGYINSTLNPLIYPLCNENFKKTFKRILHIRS
# Summary of the method: as §1
# [5] = molecular target: T4, serotoninergic 5-HT6 receptor (Homo sapiens, UniProt P50406); experiment: Binding assay 5-HT6 (h), [3H]LSD, CHO cells; parameters: expressed in transfected cells; host or cells: CHO cells; conditions: read-out: 5-HT6
# T4 sequence (P50406 whole entry): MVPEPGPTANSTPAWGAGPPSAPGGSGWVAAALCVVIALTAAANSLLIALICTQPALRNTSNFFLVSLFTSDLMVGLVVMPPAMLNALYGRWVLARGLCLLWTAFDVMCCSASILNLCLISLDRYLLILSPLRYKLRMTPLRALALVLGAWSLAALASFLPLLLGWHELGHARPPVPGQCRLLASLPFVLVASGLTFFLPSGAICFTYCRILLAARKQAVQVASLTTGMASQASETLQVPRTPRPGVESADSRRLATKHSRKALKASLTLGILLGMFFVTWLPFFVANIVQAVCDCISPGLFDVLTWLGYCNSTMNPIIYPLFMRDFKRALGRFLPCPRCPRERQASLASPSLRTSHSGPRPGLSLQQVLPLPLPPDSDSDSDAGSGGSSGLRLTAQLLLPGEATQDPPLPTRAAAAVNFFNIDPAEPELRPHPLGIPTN
# Summary of the method: as §1
# sigma σ receptor = experiment: Binding assay σ (non-selective), [3H]DTG, rat cerebral cortex; conditions: percent inhibition of control specific binding; compounds tested at 1×10^−6 M
# Summary of the method: as §1
# adrenergic α1 receptor = experiment: Binding assay α1 (non-selective), [3H]prazosin, rat cerebral cortex; conditions: percent inhibition of control specific binding; compounds tested at 1×10^−6 M
# Summary of the method: as §1
# [6] = molecular target: serotoninergic 5-HT2A receptor (Homo sapiens, UniProt P28223); experiment: Binding assay 5-HT2A (h), [3H]ketanserin, HEK-293 cells; parameters: expressed in transfected cells; host or cells: HEK-293 cells; conditions: read-out: 5-HT2A
# serotoninergic 5-HT2A receptor, sequence (P28223 whole entry): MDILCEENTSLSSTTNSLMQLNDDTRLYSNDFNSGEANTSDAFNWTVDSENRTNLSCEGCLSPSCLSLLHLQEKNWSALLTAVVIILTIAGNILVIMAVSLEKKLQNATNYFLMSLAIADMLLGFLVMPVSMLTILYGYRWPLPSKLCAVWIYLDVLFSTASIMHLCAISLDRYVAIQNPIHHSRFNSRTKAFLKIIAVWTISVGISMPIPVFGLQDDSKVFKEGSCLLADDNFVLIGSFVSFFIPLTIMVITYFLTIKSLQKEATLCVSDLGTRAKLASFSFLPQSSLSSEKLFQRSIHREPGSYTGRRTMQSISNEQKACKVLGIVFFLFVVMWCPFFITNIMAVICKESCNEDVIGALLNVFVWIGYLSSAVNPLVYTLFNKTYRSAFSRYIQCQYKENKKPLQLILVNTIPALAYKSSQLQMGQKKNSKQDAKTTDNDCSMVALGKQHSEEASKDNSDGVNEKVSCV
# Summary of the method: as §1
# [7] = molecular target: T5, serotoninergic 5-HT1A receptor (Homo sapiens, UniProt P08908); experiment: Binding assay 5-HT1A (h), [3H]8-OH-DPAT, HEK-293 cells; parameters: expressed in transfected cells; host or cells: HEK-293 cells; conditions: read-out: 5-HT1A
# T5 sequence (P08908 1-422): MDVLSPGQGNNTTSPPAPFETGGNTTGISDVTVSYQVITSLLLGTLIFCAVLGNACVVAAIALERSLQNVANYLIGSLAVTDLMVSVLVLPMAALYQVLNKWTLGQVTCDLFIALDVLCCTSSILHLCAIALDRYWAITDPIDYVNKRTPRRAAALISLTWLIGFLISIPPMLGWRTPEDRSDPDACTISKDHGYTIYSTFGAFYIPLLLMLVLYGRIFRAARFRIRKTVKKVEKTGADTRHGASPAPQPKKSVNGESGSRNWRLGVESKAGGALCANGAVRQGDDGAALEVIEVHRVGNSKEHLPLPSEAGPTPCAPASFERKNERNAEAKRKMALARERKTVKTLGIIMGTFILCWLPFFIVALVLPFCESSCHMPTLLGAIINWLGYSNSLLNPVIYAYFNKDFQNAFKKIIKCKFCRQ
# Summary of the method: as §1
# [8] = molecular target: T1, serotoninergic 5-HT7 receptor; experiment: Binding assay 5-HT7 (h), [3H]LSD, CHO cells; parameters: expressed in transfected cells; host or cells: CHO cells; conditions: read-out: 5-HT7
# Summary of the method: as §1
# [9] = molecular target: T4, serotoninergic 5-HT6 receptor; experiment: Cellular functional assay, serotoninergic 5-HT6 receptor (agonism/antagonism); type: cell-based; conditions: read-out: 5-HT6-antag. [%]
# Procedure: as §2, §3
# adrenergic α2C receptor = molecular target: T6, adrenergic α2C receptor (Homo sapiens, UniProt P18825); experiment: Binding assay α2C (h), [3H]RX 821002, CHO cells; parameters: expressed in transfected cells; host or cells: CHO cells; conditions: read-out: α2C [%]
# T6 sequence (P18825 1-462): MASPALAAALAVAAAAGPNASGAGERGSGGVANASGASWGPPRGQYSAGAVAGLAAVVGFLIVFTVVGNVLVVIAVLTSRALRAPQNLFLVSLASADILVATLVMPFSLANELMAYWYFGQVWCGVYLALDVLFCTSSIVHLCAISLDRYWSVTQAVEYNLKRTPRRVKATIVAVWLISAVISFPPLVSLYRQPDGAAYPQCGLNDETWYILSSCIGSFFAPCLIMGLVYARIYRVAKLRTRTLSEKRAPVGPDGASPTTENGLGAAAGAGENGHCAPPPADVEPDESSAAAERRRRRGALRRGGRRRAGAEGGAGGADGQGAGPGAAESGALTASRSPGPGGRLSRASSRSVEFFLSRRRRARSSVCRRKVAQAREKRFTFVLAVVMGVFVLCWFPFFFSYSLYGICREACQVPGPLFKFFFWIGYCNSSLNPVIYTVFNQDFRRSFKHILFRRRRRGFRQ
# Summary of the method: as §1
# hERG potassium channels [10] = molecular target: T7, hERG potassium channels (Homo sapiens, UniProt Q12809); experiment: hERG potassium channel block, electrophysiology (IonWorks Quattro), CHO cells; conditions: % block of hERG current, cloned hERG channels in CHO cells, IonWorks Quattro
# T7 sequence (Q12809 whole entry): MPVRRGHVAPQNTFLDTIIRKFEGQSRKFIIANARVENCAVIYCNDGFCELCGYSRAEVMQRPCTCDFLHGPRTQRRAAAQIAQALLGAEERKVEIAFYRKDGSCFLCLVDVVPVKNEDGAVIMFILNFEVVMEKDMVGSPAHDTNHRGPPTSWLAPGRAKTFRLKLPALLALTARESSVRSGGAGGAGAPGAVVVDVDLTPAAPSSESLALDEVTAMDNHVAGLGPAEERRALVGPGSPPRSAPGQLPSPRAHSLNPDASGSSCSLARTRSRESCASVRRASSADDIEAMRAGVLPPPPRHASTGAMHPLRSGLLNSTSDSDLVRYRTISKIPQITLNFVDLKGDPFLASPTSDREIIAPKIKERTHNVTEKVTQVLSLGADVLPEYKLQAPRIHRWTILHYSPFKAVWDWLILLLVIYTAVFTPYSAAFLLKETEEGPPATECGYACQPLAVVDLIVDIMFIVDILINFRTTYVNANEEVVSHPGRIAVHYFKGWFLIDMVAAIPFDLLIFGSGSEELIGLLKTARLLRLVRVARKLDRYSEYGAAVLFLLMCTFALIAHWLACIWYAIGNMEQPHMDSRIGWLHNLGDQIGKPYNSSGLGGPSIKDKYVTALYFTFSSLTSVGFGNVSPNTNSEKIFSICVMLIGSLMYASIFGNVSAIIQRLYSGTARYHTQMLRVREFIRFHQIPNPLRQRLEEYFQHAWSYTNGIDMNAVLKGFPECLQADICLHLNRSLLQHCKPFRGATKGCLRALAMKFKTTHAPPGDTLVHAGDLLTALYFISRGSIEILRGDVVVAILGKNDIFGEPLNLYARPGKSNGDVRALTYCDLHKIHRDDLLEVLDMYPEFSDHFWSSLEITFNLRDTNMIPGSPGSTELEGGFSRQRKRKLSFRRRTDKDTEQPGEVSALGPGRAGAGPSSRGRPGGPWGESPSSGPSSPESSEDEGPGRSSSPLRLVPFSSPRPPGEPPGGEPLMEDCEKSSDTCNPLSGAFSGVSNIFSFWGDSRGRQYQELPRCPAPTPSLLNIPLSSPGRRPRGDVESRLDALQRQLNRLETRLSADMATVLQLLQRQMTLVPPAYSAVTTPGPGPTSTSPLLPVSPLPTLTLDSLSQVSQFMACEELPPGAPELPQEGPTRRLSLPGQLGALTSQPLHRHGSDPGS
# Procedure: (§4) Ability to block hERG potassium channels was determined using the electrophysiological method and cloned hERG potassium channels (KCNH2 gene, expressed in CHO cells) as biological material. The effects were evaluated using IonWorks™ Quattro system (MDS-AT).
# (§5) hERG current was elicited using a pulse pattern with fixed amplitudes (conditioning prepulse: −80 mV for 25 ms; test pulse: +40 mV for 80 ms) from a holding potential of 0 mV. hERG current was measured as a difference between the peak current at 1 ms after the test step to +40 mV and the steady-state current at the end of the step to +40 mV.
# (§6) Data acquisition and analyses was performed using the IonWorks Quattro™ system operation software (version 2.0.2; Molecular Devices Corporation, Union City, Calif.). Data were corrected for leak current.
# muscarinic M3 receptor = molecular target: T8, muscarinic M3 receptor (Homo sapiens, UniProt P20309); experiment: Binding assay M3 (h), [3H]4-DAMP, CHO cells; conditions: read-out: M3 [%]
# T8 construct: expressed in transfected cells; host or cells: CHO cells
# Summary of the method: as §1
# dopaminergic D3 receptor = dopaminergic D3 receptor (Homo sapiens, UniProt P35462); experiment: Binding assay D3 (h), [3H]methyl-spiperone, CHO cells; parameters: expressed in transfected cells; host or cells: CHO cells; conditions: read-out: D3 [%]
# dopaminergic D3 receptor, sequence (P35462 whole entry): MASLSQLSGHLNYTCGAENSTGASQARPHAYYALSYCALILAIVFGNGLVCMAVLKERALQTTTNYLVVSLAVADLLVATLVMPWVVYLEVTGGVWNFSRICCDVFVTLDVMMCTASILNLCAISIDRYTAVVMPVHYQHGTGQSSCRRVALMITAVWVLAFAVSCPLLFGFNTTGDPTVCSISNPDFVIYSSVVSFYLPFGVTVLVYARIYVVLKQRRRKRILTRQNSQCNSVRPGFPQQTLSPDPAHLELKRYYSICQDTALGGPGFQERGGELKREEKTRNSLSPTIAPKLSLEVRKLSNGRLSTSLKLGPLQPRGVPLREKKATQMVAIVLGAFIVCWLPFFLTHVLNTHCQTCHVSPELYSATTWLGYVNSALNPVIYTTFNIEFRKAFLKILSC
# Summary of the method: as §1
# hERG potassium channels [11] = molecular target: T7, hERG potassium channels
# Procedure: as §4, §5, §6
# dopaminergic D2 receptor, sequence (P14416 1-414 isoform P14416-2): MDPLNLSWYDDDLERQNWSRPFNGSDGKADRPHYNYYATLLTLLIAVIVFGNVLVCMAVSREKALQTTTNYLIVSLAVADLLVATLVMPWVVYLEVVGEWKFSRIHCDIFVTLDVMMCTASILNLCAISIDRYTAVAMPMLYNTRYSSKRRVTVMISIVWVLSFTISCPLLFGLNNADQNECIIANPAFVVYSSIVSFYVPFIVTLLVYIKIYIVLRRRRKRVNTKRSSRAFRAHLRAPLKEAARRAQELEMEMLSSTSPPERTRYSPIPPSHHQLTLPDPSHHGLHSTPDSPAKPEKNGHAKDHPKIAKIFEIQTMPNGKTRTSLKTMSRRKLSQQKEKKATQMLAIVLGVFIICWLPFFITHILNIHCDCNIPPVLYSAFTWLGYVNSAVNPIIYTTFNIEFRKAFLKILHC
Compound,inhibition at 1 µM (dopaminergic D2 receptor) [%],activation at 1 µM [1] [%],inhibition at 1 µM [1] [%],inhibition at 1 µM [2] [%],inhibition at 1 µM [3] [%],inhibition at 1 µM [4] [%],inhibition at 1 µM [5] [%],σ [%] (sigma σ receptor),α1 [%] (adrenergic α1 receptor),inhibition at 1 µM [6] [%],inhibition at 1 µM [7] [%],inhibition at 1 µM [8] [%],inhibition at 1 µM [9] [%],inhibition at 1 µM (adrenergic α2C receptor) [%],hERG [%] (hERG potassium channels [10]),inhibition at 1 µM (muscarinic M3 receptor) [%],inhibition at 1 µM (dopaminergic D3 receptor) [%],hERG [%] (hERG potassium channels [11])
"O=S(=O)(NCCCN1CCN(c2nsc3ccccc23)CC1)c1cccc2ccccc12 [Compound 5, N-(3-(4-(1,2-Benzothiazol-3-yl)piperazin-1-yl)propyl)naphthalene-1-sulphonamide]",96,-1,85,84,81,92,84,72,98,99,99,98,18,99,17,7,98,
"O=S(=O)(NCCCN1CCN(c2nsc3ccccc23)CC1)c1ccc2ccccc2c1 [Compound 6, N-(3-(4-(1,2-Benzothiazol-3-yl)piperazin-1-yl)propyl)naphthalene-2-sulphonamide]",96,0,66,95,88,93,88,59,95,100,99,98,26,93,13,-1,97,
"Cc1[nH]c2ccc(Cl)cc2c1C1=CCN(CCCNS(=O)(=O)c2cccc(O)c2)CC1 [Compound 445, N-[3-[4-(5-Chloro-2-methyl-1H-indol-3-yl)-3,6-dihydro-2H-pyridin-1-yl]propyl]-3-hydroxybenzenesulphonamide]",98,,,68,67,60,84,67,50,78,93,98,,69,,27,97,2
